Experiments:
Nucleic Acid = experiment: Inhibitory activity against RNA; assay type: functional
[1] = molecular target: Human immunodeficiency virus type 1 reverse transcriptase (Human immunodeficiency virus 1, UniProt Q72547); experiment: Inhibitory activity against HIV-1 reverse transcriptase

| Structure (SMILES) | IC90 (Nucleic Acid) [nM] | IC50 [1] [nM] |
| --- | --- | --- |
| O=C1Nc2c(O[C@@H]3O[C@H](C(=O)O)[C@@H](O)[C@H](O)[C@H]3O)cc(Cl)cc2[C@@](C#CC2CC2)(C(F)(F)F)O1 | > 985 | 9490 |
| O=C1Nc2cc(O)c(Cl)cc2C(C#CC2CC2)(C(F)(F)F)O1 (stereo not drawn) | 422 | 2450 |
| O=C1Nc2ccc(Cl)cc2[C@@](C#CC2CC2)(C(F)(F)F)O1 | 1.7 | – |
| O=C1Nc2c(O)cc(Cl)cc2[C@@](C#CC2CC2)(C(F)(F)F)O1 | 63 | 2340 |
| O=C1Nc2ccc(Cl)cc2C(C#CC2(O)CC2)(C(F)(F)F)O1 (stereo not drawn) | 33 | 1980 |
| O=C1Nc2c(OS(=O)(=O)O)cc(Cl)cc2[C@@](C#CC2CC2)(C(F)(F)F)O1.c1ccncc1 | 1010 | 12500 |
| O=C1Nc2c(O)cc(Cl)cc2C(C#CC2CC2)(C(F)(F)F)O1 (single isomer, unassigned) | > 1510 | > 12500 |

Source: ChEMBL document CHEMBL1134210, “Synthesis and biological activities of potential metabolites of the non-nucleoside reverse transcriptase inhibitor efavirenz” (Bioorg Med Chem Lett, 2001)
